The text below walks through data of publication PMC7137270, “Determination of parecoxib and valdecoxib in rat plasma by UPLC-MS/MS and its application to pharmacokinetics studies” (BMC Pharmacology & Toxicology, 2020).

One data set concerns plasma proteins. As to conditions: cited from earlier work.
On the set-up of data set [1]: method as in PMID 29843006. As to conditions: cited from earlier work.
Data set [2] in a line: Pharmacokinetic study in rats after sublingual vein administration of parecoxib. In kind it is in vivo. As to conditions: male, Sprague Dawley, rat plasma, sublingual vein administration of 5 mg/kg PCX, n = 6; for MRT last: read-out: MRT(0-t); for MRT inf: read-out: MRT(0-∞). As to the method:
The average weight range of 200–220 g male Sprague Dawley (SD) was obtained from the laboratory animal center of the Wenzhou Medical University (Wenzhou, China, License No. SCXK [ZJ] 2005–0019). Rats stayed in cages and freely got food and water under a stable temperature range of 24–26 °C and a controllable 12 h light/dark cycle apparatus. Animal protocols were approved by the Institutional animal experimentation Committee of the Wenzhou Medical University. A total of 12 SD rats were separated into two isolated groups, including the experimental group (n = 6) and the control group (n = 6). Fasting was carried out for 12 h before assays, and only water was freely accessible. The rats were treated with […] PCX intravenously, which was equivalent to 56 mg for an individual of 70 kg human body weight (regular range in the clinic is from 40 to 80 mg). 0.3 ml of blood samples were collected and stabilized in heparinized tubes at each given time point (0, 0.083, 0.167, 0.25, 0.5, 0.75, 1, 2, 3, 4, 6, 8, 10, 12 and 24 h). The plasma samples were separated through centrifugation at 3000 r/min for 10 min and carefully collected the supernatant and stored at − 20 °C before analysis. All pharmacokinetic data were analyzed by the DAS (Drug and Statistics) software. All rats were sacrificed by CO2 inhalation.
In the clinic, the recommended dose of PCX was 40 mg per patient, i.m. or i.v., and the total daily dose was not more than 80 mg. In the present study, a dose of 5 mg/kg PCX was injected to rats by i.v., which was equivalent to 56 mg for an individual of 70 kg body weight (range of 40–80 mg). The UPLC-MS/MS has effectively monitored the pharmacokinetic changes after administration of […] PCX. Further, the pharmacokinetic parameters were figured out by using the DAS 3.0 software.

The nature of data set [3]: Stability of analytes in rat plasma (short-term, long-term, freeze/thaw). It is filed as in vitro ADME. The conditions noted are these: n = 6; for Freeze/thaw (−20 °C to room temperature) RE: three cycles. As to the method:
The stability of the samples (including QC and IS) in rat plasma was determined by placing samples (n = 6) in three settings. Of those settings, the short-term stability was determined via leaving the samples at room temperature for 24 h. For long-term stability evaluation, the samples went through 3 weeks of storage at − 20 °C before measurement. The stability of samples after freeze-thaw treatment was assessed by performing freeze/thaw cycles on each sample three times prior to analysis. The fresh samples were prepared as a negative control. The acceptable bias was considered great stability when it was within ±15%. […]

On the set-up of data set [4]: method as in PMID 11519767. As to conditions: control of acute pain, specific dose of PCX; cited from earlier work.

Where only a bound is given, the exact number is not on record here.

As to `Cc1onc(-c2ccccc2)c1-c1ccc(S(N)(=O)=O)cc1` [Valdecoxib], the “bound to plasma proteins” value in the data set with plasma proteins was 98%. Besides, the “fraction of VCX in the circulation metabolized to hydroxylated VCX” value in data set [1] was “approximately 10%”. In data set [2], the AUC(0-inf) (usually total exposure, with the tail of the curve extrapolated) was found to be 4370 ± 1530 ng·h/mL; the AUC(0-t) – broadly, the area under the concentration-time curve up to a stated or last time point – was determined as 4190 ± 1590 ng·h/mL; the highest concentration (Cmax) – broadly, the highest concentration seen after dosing – was determined as 701 ± 92.6 ng/mL; the Tmax (usually the time at which the peak concentration occurs) is 0.8 ± 0.2 h. For the same compound, in data set [2], the clearance (usually a measure of how efficiently the substance is removed, as volume per time) is 20 mL/min/kg; the half-life (in general, the time needed for the level to fall by half in the phase considered) was 3.1 ± 1.1 h; the MRT last turned out to be 4.1 ± 1 h; the MRT inf came to 4.8 ± 1.1 h. In addition, in data set [3] (5 ng/mL), the “Long-term (−20 °C, 3 weeks) RE” value was −1.4%; the “Short-term (room temperature, 24 h) RE” value is reported as −6.7%; the “Freeze/thaw (−20 °C to room temperature) RE” value (from here on “Freeze/thaw”) was determined as 5.2%. Also, in data set [3] (40 ng/mL), the “Long-term (−20 °C, 3 weeks) RE” value came out at 13.2%; the “Short-term (room temperature, 24 h) RE” value amounted to 12%; the “Freeze/thaw” value is reported as 14.2%. For the same compound, in data set [3] (400 ng/mL), the “Long-term (−20 °C, 3 weeks) RE” value was determined as 3.2%; the “Short-term (room temperature, 24 h) RE” value is reported as 3.2%; the “Freeze/thaw” value was 9.5%.
As to `Cc1ccc(-c2cc(C(F)(F)F)nn2-c2ccc(S(N)(=O)=O)cc2)cc1` [Celecoxib], in data set [3] (200 ng/mL), the “Long-term (−20 °C, 3 weeks) RE” value is listed as −1.3%; the “Short-term (room temperature, 24 h) RE” value is 7.5%; the “Freeze/thaw” value is listed as 5.8%.
With `CCC(=O)NS(=O)(=O)c1ccc(-c2c(-c3ccccc3)noc2C)cc1` [Parecoxib], in data set [4], the onset of analgesia is 7 to 14 min and the “time to peak analgesic effect” value is on record as at most 2 h. In addition, in data set [2], the AUC(0-inf) came out at 2110 ± 283 ng·h/mL, the AUC(0-t) turned out to be 2110 ± 282 ng·h/mL, the Cmax came to 5070 ± 1210 ng/mL and the Tmax came out at 0.1 h. For the same compound, in data set [2], the clearance was 40 mL/min/kg, the half-life is 1.4 ± 0.5 h, the MRT last is 0.4 ± 0.1 h and the MRT inf worked out at 0.4 ± 0.1 h. In data set [3] (100 ng/mL), the “Long-term (−20 °C, 3 weeks) RE” value worked out at 14.2%; the “Short-term (room temperature, 24 h) RE” value was 13.0%; the “Freeze/thaw” value turned out to be 14.9%. Moreover, in data set [3] (800 ng/mL), the “Long-term (−20 °C, 3 weeks) RE” value is reported as 12.7%; the “Short-term (room temperature, 24 h) RE” value came to 10.2%; the “Freeze/thaw” value is 14.2%. In addition, in data set [3] (8000 ng/mL), the “Long-term (−20 °C, 3 weeks) RE” value amounted to 14.3%; the “Short-term (room temperature, 24 h) RE” value is given as −10.5%; the “Freeze/thaw” value is −7.9%.
